SMILES strings stand for the structures.

Series [1] can be described thus: In vitro percent inhibition of Cyclin-dependent kinase 2-cyclin A at 10 uM concentration of compound dissolved in 100% DMSO using 5''-[gamma-33P]-triphosphate.
In series [2] the target is Ribosomal protein S6 kinase (P70S6K) (Homo sapiens) (UniProt Q9UBS0+P23443). Put plainly: In vitro percent inhibition of Ribosomal protein S6 kinase at 10 uM concentration of compound dissolved in 100% DMSO using 5''-[gamma-33P]-triphosphate. In kind it is protein-complex assay.
Series [3] addresses Glycogen synthase kinase-3 beta (Homo sapiens) (UniProt P49841). Put plainly: In vitro percent inhibition of Glycogen synthase kinase 3 beta at 10 uM concentration of compound dissolved in 100% DMSO using 5''-[gamma-33P]-triphosphate.
The target in series [4] is RAF proto-oncogene serine/threonine-protein kinase (Homo sapiens) (UniProt P04049). Put plainly: In vitro percent inhibition of RAF proto-oncogene serine/threonine-protein kinase at 10 uM concentration of compound dissolved in 100% DMSO using 5''-[gamma-33P]-triphosphate.
In series [5] the target is Platelet-derived growth factor receptor beta (Homo sapiens) (UniProt P09619). Briefly: In vitro percent inhibition of Platelet-derived growth factor receptor, beta polypeptide at 10 uM concentration of compound dissolved in 100% DMSO using 5''-[gamma-33P]-triphosphate.
Series [6] addresses Mast/stem cell growth factor receptor Kit (Homo sapiens) (UniProt P10721). Briefly: In vitro percent inhibition of v-kit Hardy-Zuckerman 4 feline sarcoma viral oncogene homolog at 10 uM concentration of compound dissolved in 100% DMSO using 5''-[gamma-33P]-triphosphate.
In series [7] the target is Hepatocyte growth factor receptor (Homo sapiens) (UniProt P08581). Briefly: In vitro percent inhibition of Met proto-oncogene tyrosine kinase at 10 uM concentration of compound dissolved in 100% DMSO using 5''-[gamma-33P]-triphosphate.
Series [8] concerns the target Mitogen-activated protein kinase 3 (Homo sapiens) (UniProt P27361). Put plainly: In vitro percent inhibition of Mitogen-activated protein kinase 3 at 10 uM concentration of compound dissolved in 100% DMSO using 5''-[gamma-33P]-triphosphate.
Series [9] addresses Tyrosine-protein kinase Lck (Homo sapiens) (UniProt P06239). Briefly: In vitro percent inhibition of p56 Lck tyrosine kinase at 10 uM concentration of compound dissolved in 100% DMSO using 5''-[gamma-33P]-triphosphate.
Series [10] concerns the target Rho-associated protein kinase 2 (Homo sapiens) (UniProt O75116). Briefly: In vitro percent inhibition of Protein kinase ROCK2 at 10 uM concentration of compound dissolved in 100% DMSO using 5''-[gamma-33P]-triphosphate.
The target in series [11] is Casein kinase I isoform alpha (Homo sapiens) (UniProt P48729). Put plainly: In vitro percent inhibition of Casein kinase 1 alpha at 10 uM concentration of compound dissolved in 100% DMSO using 5''-[gamma-33P]-triphosphate.
In series [12] the target is T1, Inhibitor of nuclear factor kappa-B kinase subunit beta (Homo sapiens) (UniProt O14920).
T1 sequence (whole entry): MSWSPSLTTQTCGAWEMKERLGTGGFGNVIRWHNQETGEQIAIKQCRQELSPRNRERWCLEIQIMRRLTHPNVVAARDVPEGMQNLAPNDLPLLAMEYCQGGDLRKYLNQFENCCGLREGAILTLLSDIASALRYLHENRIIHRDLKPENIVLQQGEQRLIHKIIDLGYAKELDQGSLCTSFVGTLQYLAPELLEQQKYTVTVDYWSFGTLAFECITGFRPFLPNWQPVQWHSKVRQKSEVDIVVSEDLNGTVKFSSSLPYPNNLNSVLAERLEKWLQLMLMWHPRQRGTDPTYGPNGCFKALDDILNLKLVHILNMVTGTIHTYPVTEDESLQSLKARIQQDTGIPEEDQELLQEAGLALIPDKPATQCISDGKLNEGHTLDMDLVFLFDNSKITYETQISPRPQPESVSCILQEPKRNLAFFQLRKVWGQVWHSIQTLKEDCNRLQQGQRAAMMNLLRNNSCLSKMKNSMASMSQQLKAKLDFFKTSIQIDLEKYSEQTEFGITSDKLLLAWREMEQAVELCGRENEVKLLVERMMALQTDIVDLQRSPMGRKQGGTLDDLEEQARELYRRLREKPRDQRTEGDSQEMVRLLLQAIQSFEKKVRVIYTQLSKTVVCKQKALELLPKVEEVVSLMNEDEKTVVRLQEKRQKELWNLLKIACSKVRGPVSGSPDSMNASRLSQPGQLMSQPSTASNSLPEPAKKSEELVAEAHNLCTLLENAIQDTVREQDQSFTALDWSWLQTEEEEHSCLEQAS
Briefly: In vitro percent inhibition of I-kappa-B-kinase beta at 10 uM concentration of compound dissolved in 100% DMSO using 5''-[gamma-33P]-triphosphate.

The nature of series [13]: In vitro percent inhibition of Ribosomal S6 kinase 1 at 10 uM concentration of compound dissolved in 100% DMSO using 5''-[gamma-33P]-triphosphate.
Series [14] addresses Proto-oncogene tyrosine-protein kinase Src (Homo sapiens) (UniProt P12931). Put plainly: In vitro percent inhibition of c-Src tyrosine kinase at 10 uM concentration of compound dissolved in 100% DMSO using 5''-[gamma-33P]-triphosphate.
Series [15] can be described thus: Partition coefficient (logP). Conditions: octanol/water. Type of series: physicochemical.
Series [16] concerns the target Epidermal growth factor receptor (Homo sapiens) (UniProt P00533). Conditions: 10 uM.
Series [17] deals with RAC-alpha serine/threonine-protein kinase (Homo sapiens) (UniProt P31749). Briefly: In vitro percent inhibition of Protein kinase B, alpha at 10 uM concentration of compound dissolved in 100% DMSO using 5''-[gamma-33P]-triphosphate.
The target of series [18] is T2, Tyrosine-protein kinase transforming protein Abl (Abelson murine leukemia virus) (UniProt P00521).
T2 sequence (whole entry): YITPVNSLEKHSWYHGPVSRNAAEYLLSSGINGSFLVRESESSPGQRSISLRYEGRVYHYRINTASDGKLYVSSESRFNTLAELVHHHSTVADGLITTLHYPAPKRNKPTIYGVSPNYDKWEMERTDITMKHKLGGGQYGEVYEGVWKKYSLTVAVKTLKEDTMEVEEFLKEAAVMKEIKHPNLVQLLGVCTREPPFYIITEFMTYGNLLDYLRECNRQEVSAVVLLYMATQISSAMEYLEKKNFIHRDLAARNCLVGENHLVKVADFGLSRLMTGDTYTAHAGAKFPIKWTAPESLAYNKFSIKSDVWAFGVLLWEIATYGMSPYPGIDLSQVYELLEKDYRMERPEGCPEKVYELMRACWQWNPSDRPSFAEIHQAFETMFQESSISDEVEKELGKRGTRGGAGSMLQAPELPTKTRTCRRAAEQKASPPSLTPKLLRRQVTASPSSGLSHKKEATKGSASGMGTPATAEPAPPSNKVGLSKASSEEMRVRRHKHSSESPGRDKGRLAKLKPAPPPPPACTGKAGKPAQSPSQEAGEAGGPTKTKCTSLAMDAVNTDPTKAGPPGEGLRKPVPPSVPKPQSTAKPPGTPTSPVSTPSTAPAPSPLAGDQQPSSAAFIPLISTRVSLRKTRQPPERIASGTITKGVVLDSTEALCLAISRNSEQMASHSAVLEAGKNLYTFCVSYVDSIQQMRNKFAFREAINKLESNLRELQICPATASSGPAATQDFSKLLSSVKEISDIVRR
Put plainly: In vitro percent inhibition of v-Abl tyrosine kinase at 10 uM concentration of compound dissolved in 100% DMSO using 5''-[gamma-33P]-triphosphate.

For series [19], the target named is Mitogen-activated protein kinase 8 (Homo sapiens) (UniProt P45983). Put plainly: In vitro percent inhibition of c-Jun N-terminal kinase 1-alpha 1 at 10 uM concentration of compound dissolved in 100% DMSO using 5''-[gamma-33P]-triphosphate.

Sequence of Mast/stem cell growth factor receptor Kit (Homo sapiens) (P10721 whole entry): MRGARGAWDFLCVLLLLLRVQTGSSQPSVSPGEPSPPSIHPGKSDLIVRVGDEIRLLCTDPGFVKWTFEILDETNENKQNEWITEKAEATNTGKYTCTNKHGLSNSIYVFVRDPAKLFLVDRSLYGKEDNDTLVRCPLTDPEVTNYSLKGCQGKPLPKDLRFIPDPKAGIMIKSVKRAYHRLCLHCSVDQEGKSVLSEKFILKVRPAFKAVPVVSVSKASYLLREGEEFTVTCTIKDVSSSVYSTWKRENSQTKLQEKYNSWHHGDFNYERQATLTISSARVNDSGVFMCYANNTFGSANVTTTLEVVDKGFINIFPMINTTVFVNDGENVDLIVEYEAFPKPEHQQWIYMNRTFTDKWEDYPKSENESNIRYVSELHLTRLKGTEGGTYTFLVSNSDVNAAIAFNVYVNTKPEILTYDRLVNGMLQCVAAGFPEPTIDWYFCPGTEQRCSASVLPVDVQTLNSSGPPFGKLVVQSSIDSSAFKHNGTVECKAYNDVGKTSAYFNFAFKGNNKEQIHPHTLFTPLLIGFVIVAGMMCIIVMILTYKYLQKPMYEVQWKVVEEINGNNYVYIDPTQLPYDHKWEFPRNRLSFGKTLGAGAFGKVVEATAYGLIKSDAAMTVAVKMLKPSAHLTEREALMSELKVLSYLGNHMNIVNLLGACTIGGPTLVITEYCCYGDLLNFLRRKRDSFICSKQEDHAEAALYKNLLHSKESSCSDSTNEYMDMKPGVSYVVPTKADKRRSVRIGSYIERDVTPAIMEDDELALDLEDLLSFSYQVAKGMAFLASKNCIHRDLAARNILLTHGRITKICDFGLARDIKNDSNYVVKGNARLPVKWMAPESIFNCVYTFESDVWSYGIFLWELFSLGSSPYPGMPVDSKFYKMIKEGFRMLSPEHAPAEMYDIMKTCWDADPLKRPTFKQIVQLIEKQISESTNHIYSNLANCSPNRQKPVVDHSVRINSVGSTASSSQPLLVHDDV
Sequence of Rho-associated protein kinase 2 (Homo sapiens) (O75116 whole entry, looked up, canonical isoform): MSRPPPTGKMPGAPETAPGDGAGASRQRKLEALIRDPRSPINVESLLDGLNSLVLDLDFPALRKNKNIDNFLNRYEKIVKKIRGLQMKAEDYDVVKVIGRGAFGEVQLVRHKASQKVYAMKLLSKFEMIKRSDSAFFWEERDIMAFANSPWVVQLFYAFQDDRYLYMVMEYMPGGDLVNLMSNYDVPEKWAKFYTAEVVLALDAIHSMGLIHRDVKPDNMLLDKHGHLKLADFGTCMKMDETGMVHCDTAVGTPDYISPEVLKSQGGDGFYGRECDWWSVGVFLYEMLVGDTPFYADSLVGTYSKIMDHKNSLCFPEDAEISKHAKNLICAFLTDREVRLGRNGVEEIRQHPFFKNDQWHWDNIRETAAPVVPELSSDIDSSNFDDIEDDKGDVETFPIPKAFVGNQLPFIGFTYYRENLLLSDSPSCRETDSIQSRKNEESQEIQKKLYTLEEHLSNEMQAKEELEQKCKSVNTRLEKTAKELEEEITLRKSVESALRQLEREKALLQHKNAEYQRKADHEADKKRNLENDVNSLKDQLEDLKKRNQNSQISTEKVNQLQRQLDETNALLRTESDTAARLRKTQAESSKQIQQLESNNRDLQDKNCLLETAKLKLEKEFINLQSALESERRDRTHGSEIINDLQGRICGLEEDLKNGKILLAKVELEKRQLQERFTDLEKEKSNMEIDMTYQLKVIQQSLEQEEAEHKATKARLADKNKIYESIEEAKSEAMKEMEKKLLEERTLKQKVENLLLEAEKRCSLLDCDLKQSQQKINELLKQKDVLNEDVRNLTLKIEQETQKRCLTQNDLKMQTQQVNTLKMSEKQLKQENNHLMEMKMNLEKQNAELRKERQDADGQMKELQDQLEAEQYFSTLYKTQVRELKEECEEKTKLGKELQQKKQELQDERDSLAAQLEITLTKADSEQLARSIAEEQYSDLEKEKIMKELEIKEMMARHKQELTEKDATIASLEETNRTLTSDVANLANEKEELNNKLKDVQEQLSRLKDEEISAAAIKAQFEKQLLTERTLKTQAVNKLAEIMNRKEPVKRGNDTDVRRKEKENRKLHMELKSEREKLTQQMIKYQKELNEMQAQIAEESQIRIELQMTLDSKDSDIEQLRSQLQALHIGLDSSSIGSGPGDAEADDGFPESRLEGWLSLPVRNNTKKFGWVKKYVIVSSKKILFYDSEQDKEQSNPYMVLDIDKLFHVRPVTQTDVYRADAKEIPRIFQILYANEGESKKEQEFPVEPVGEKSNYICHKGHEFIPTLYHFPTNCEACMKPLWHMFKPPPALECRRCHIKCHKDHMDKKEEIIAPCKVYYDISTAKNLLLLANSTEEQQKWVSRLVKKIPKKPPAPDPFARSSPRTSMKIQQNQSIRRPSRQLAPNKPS
Sequence of Glycogen synthase kinase-3 beta (Homo sapiens) (P49841 whole entry, looked up): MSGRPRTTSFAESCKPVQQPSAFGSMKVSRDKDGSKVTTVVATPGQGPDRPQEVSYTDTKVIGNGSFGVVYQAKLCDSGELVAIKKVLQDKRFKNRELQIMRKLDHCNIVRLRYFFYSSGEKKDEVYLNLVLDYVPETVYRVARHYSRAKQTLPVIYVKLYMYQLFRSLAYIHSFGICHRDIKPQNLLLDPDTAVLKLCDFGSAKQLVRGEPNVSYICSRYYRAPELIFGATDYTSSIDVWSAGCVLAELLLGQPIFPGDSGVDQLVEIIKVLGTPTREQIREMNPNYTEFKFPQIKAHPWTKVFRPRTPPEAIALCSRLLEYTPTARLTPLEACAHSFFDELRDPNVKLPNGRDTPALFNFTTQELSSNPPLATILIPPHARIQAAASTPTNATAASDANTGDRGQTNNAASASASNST
Sequence of Casein kinase I isoform alpha (Homo sapiens) (P48729 2-337 limits assumed): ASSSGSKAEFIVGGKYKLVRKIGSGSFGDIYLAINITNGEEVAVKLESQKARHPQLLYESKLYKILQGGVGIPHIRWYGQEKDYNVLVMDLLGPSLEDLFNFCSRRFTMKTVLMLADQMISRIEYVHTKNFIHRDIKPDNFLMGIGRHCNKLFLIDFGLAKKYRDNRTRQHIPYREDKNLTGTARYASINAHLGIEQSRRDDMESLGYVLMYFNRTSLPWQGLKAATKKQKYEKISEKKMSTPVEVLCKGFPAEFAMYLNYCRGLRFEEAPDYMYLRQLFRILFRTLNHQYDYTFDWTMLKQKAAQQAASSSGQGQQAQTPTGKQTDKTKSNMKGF
Sequence of Tyrosine-protein kinase Lck (Homo sapiens) (P06239 2-509 limits assumed): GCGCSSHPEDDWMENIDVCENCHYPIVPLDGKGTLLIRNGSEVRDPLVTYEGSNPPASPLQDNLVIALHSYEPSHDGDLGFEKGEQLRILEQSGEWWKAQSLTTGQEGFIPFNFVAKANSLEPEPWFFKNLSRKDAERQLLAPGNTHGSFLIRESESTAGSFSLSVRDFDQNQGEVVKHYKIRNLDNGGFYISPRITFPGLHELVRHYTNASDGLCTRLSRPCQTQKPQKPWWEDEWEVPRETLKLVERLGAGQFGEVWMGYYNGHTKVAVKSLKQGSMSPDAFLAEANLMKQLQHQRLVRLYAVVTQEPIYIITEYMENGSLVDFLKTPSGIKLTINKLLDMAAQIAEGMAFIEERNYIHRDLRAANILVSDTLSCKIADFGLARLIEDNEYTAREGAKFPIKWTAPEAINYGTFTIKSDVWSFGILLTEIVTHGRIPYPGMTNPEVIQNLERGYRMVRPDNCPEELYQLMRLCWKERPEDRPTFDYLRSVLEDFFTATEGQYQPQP
Sequence of Hepatocyte growth factor receptor (Homo sapiens) (P08581 whole entry): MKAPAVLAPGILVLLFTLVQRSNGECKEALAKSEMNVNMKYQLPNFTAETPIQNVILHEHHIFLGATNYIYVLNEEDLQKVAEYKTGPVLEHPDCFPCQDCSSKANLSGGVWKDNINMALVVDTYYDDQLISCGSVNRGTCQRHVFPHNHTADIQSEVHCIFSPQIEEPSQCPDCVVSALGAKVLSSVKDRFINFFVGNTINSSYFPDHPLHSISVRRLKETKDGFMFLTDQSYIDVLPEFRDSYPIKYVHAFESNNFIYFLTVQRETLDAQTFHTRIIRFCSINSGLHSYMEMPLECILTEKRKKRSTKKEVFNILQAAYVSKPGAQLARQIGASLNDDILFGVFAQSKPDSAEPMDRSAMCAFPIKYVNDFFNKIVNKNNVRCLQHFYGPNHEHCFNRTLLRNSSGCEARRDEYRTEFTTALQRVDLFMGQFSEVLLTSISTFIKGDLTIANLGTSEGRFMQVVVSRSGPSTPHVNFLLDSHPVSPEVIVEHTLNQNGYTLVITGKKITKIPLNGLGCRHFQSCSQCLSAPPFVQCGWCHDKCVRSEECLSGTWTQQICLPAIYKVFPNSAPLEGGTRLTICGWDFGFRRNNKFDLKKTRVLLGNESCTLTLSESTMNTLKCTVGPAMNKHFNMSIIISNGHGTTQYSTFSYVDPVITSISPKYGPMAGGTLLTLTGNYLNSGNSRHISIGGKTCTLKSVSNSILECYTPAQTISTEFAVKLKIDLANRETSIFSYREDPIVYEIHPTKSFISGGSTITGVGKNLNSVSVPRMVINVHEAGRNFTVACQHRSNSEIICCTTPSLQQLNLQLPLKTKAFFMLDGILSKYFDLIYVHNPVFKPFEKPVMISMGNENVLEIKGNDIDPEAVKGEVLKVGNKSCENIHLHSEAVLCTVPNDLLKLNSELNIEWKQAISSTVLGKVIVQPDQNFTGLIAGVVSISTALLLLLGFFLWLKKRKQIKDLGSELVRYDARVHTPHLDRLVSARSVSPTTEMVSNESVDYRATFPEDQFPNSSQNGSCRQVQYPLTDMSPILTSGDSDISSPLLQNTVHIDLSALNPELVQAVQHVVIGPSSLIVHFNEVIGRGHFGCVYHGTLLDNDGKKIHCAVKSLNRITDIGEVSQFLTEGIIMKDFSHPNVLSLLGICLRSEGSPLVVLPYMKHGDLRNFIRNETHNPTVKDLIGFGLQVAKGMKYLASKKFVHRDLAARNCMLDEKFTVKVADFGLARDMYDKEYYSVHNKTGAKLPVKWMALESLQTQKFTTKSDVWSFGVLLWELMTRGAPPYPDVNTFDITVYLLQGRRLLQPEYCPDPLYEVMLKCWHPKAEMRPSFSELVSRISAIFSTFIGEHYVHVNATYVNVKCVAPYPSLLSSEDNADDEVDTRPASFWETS

Consider `O=C(O)CCCc1ccc(-c2nc3cc4ccccc4cc3nc2-c2ccc(CCCC(=O)O)s2)s1`, for which the inhibition (usually the drop in the measured response relative to a control, in per cent) in series [1] came to 7%; in series [2], 18%; in series [3], 13%; in series [4], 12%; in [5], 37%; in series [6], 33%. The inhibition is 7% in [7]; 6% in [8]; 9% in series [9]; 0% in series [10]; 24% in [11]; 43% in series [12]. Besides, the inhibition in series [13] is 20%; in series [14], 35%; in series [16], 32%. The logP – broadly, the decadic logarithm of the partition coefficient of the neutral form, usually between octanol and water – in series [15] is 4.77.

As for `O=C(O)c1ccc(-c2nc3cc4ccccc4cc3nc2-c2ccc(C(=O)O)s2)s1`, the inhibition came to 3% in series [1]; 14% in series [2]; 51% in series [3]; 16% in series [4]; 23% in [5]; 12% in series [6]. Further, the inhibition is -4% in [7]; 49% in series [8]; 12% in [17]; 19% in series [10]; 7% in [11]; 29% in series [12]. Also, the inhibition in [13] was 31%; in series [14], 20%; in series [16] it was 49%. This compound also registered a lipophilicity (logP) in [15] of 5.03.

In the case of `O=C(O)Cc1csc(-c2nc3cc4ccccc4cc3nc2-c2cc(CC(=O)O)cs2)c1`, the inhibition in series [1] was -5%; in series [2], 10%; in series [3], 22%; in series [4], 40%; in series [5], 22%; in series [6], 17%. The inhibition in [7] amounted to 21%; in series [8], 54%; in [17], 17%; in series [9], 8%; in series [10], 18%; in [11], 18%. The inhibition in series [12] is 37%; in series [13], 27%; in [14], 29%; in [18] it was -7%; in series [16], 54%. In series [15], this compound gave a log partition coefficient (logP) of 4.11.

`CCC(=O)c1ccccc1` [PROPIOPHENONE] gave a log partition coefficient (logP) in series [15] of 2.2.

For the compound `O=C(O)C1COc2cc3nc(-c4cccs4)c(-c4cccs4)nc3cc2O1` (stereo unspecified), the inhibition is 10% in [1]; -1% in [2]; 33% in [3]; 12% in [4]; 5% in [5]; 4% in [6]. The inhibition in series [7] is -2%; in series [8], 39%; in [17], 4%; in [9] it was -2%; in series [10], -1%; in [11] it was 15%. Also, the inhibition in series [12] is 14%; in [13] it was 14%; in series [14], 19%; in [18], -6%; in series [16] it was 39%. Moreover, in [15], the log partition coefficient (logP) is 4.7.

Take `CCCC(=O)c1ccccc1` [BUTYROPHENONE]: in series [15], the logP is 2.73.

On to `Cn1c(=O)c2[nH]cnc2n(C)c1=O` [THEOPHYLLINE], for which the logP in series [15] was -0.05.

Take `COC(=O)CCc1ccc(-c2nc3cc4ccccc4cc3nc2-c2ccc(CCC(=O)OC)s2)s1`: the inhibition in series [19] is -10%; in [1], 12%; in [2], 11%; in [3], 7%; in series [4], 18%; in [5], 13%. The inhibition in [6] stood at 12%; in series [7], 39%; in series [8], 13%; in series [17], 14%; in [9] it was 5%; in series [10], 5%. In addition, the inhibition in series [11] is 14%; in [12] it was 31%; in series [13], 31%; in [14], 19%; in [18], -8%; in series [16] it was 32%. Moreover, in [15], the logP was determined as 5.

Compound `CCCCC(=O)c1ccccc1` [VALEROPHENONE] showed a logP in series [15] of 3.26.

With `c1ccc(-c2nnn[nH]2)cc1`, in series [15], the lipophilicity (logP) was found to be 1.42.

In [15], `COc1cc2c(c(OC)c1OC)-c1ccc(OC)c(=O)cc1[C@@H](NC(C)=O)CC2` [COLCHICINE] had a logP of 0.92.

In turn, `c1ccc2[nH]cnc2c1` [BENZIMIDAZOLE] displayed a log partition coefficient (logP) in series [15] of 1.55.

Take `Cn1c(=O)c2[nH]c(-c3ccccc3)nc2n(C)c1=O` [8-PHENYL THEOPHYLLINE]: in [15], the logP was 2.05.

In turn, `COC(=O)Cc1ccc(-c2nc3cc4ccccc4cc3nc2-c2ccc(CC(=O)OC)s2)s1` returned a logP in series [15] of 4.95.

The record behind these values is ChEMBL document CHEMBL1140238, “Synthesis of selective SRPK-1 inhibitors: novel tricyclic quinoxaline derivatives” (Bioorg Med Chem Lett, 2005).
